As a reminder, the melting point is the temperature, or range, at which the solid turns liquid. Regarding `CC(=O)Oc1ccccc1C(=O)Nc1cc(Cl)cc(Cl)c1`, the melting point fell in the range of 218 to 219 °C.
